# Measurements as given in patent US10815276B2, “Cell penetrating peptides and methods of making and using thereof” (Entrada Therapeutics, Inc., priority 2014, dated 2020).
# Starred links: 1 amine or outer side, 2 acyl side, 3 side chain; linkers in the order of their positions; H or OH if unused. Positions of bridges follow the written chain, without caps; N, C: chain ends. Non-standard residues stand in square brackets, D forms with d. Residues, ends and D or L forms follow the SMILES beside them. Trimesoyl = O=C(c1cc(C(=O)[*:2])cc(C(=O)[*:3])c1)[*:1]; Phe(4-Br) = N[C@@H](Cc1ccc(Br)cc1)C(=O)O; Phe(4-Cl) = N[C@@H](Cc1ccc(Cl)cc1)C(=O)O; Phe(4-F) = N[C@@H](Cc1ccc(F)cc1)C(=O)O; dPhe(3-F) = N[C@H](Cc1cccc(F)c1)C(=O)O; 2Nal = N[C@@H](Cc1ccc2ccccc2c1)C(=O)O; dPhe(2-F) = N[C@H](Cc1ccccc1F)C(=O)O; Pip = O=C(O)[C@@H]1CCCCN1; Dap = NC[C@H](N)C(=O)O; βAla = NCCC(=O)O; Sar = CNCC(=O)O
# Molecular target: T1, Pin1 (Homo sapiens, UniProt Q13526, S16A/Y23A)
# T1 construct: The full-length human S16A/Y23A mutant Pin1 was expressed and purified from E. coli; made in house
# Assay: Pin1 binding by FA (FITC-labeled peptides)
# Settings: FITC-labeled peptide, FA; read-out: KD
row,Kd,Compound
1,0.59 ± 0.05 µM,"C[C@@H]1NC(=O)[C@H](CCCNC(=N)N)NC(=O)[C@H](Cc2ccc3ccccc3c2)NC(=O)[C@@H]2CCCCN2C(=O)[C@@H]([C@H](C)O)NC(=O)[C@H](Cc2ccc(F)cc2)NC(=O)[C@@H](Cc2ccccc2F)NC(=O)c2cc3cc(c2)C(=O)NC[C@H](NC(=O)[C@@H](Cc2ccccc2)NC1=O)C(=O)N[C@@H](Cc1ccccc1)C(=O)N[C@@H](Cc1ccc2ccccc2c1)C(=O)N[C@@H](CCCNC(=N)N)C(=O)N[C@@H](CCCNC(=N)N)C(=O)N[C@@H](CCCNC(=N)N)C(=O)N[C@@H](CCCNC(=N)N)C(=O)N[C@H](C(=O)N[C@@H](CCCCN)C(N)=O)CNC3=O [Peptide 35, bicyclo[Tm-(D-2-Fpa-Fpa-D-Thr-Pip-Nal-Arg-Ala-D-Phe)-Dap-(Phe-Nal-Arg-Arg-Arg-Arg-Dap)]-Lys] ([dPhe(2-F)][Phe(4-F)][dT][Pip][2Nal]RA[dF][Dap]F[2Nal]RRRR[Dap]K-NH2; linker N-9-16 via Trimesoyl; C-terminus assumed)"
2,1.78 ± 0.42 µM,"C[C@@H]1NC(=O)[C@H](CCCNC(=N)N)NC(=O)[C@H](Cc2ccc3ccccc3c2)NC(=O)[C@@H]2CCCCN2C(=O)[C@@H]([C@H](C)O)NC(=O)[C@H](Cc2ccc(Br)cc2)NC(=O)[C@@H](Cc2ccccc2)NC(=O)c2cc3cc(c2)C(=O)NC[C@H](NC(=O)[C@@H](Cc2ccccc2)NC1=O)C(=O)N[C@@H](Cc1ccccc1)C(=O)N[C@@H](Cc1ccc2ccccc2c1)C(=O)N[C@@H](CCCNC(=N)N)C(=O)N[C@@H](CCCNC(=N)N)C(=O)N[C@@H](CCCNC(=N)N)C(=O)N[C@@H](CCCNC(=N)N)C(=O)N[C@H](C(=O)N[C@@H](CCCCN)C(N)=O)CNC3=O [Peptide 32, bicyclo[Tm-(D-Phe-4-BrPhe-D-Thr-Pip-Nal-Arg-Ala-D-Phe)-Dap-(Phe-Nal-Arg-Arg-Arg-Arg-Dap)]-Lys] ([dF][Phe(4-Br)][dT][Pip][2Nal]RA[dF][Dap]F[2Nal]RRRR[Dap]K-NH2; linker N-9-16 via Trimesoyl; C-terminus assumed)"
3,1.26 ± 0.28 µM,"C[C@@H]1NC(=O)[C@H](CCCNC(=N)N)NC(=O)[C@H](Cc2ccc3ccccc3c2)NC(=O)[C@@H]2CCCCN2C(=O)[C@@H]([C@H](C)O)NC(=O)[C@H](Cc2ccccc2)NC(=O)[C@@H](Cc2ccccc2)NC(=O)c2cc3cc(c2)C(=O)NC[C@H](NC(=O)[C@@H](Cc2ccccc2)NC1=O)C(=O)N[C@@H](Cc1ccccc1)C(=O)N[C@@H](Cc1ccc2ccccc2c1)C(=O)N[C@@H](CCCNC(=N)N)C(=O)N[C@@H](CCCNC(=N)N)C(=O)N[C@@H](CCCNC(=N)N)C(=O)N[C@@H](CCCNC(=N)N)C(=O)N[C@H](C(=O)N[C@@H](CCCCN)C(N)=O)CNC3=O [Peptide 28, bicyclo[Tm-(D-Phe-Phe-D-Thr-Pip-Nal-Arg-Ala-D-Phe)-Dap-(Phe-Nal-Arg-Arg-Arg-Arg-Dap)]-Lys] ([dF]F[dT][Pip][2Nal]RA[dF][Dap]F[2Nal]RRRR[Dap]K-NH2; linker N-9-16 via Trimesoyl; C-terminus assumed)"
4,1.75 ± 0.18 µM,"C[C@H]1NC(=O)CCNC(=O)[C@H](CCCNC(=N)N)NC(=O)[C@H](Cc2ccc3ccccc3c2)NC(=O)[C@@H]2CCCCN2C(=O)[C@@H](CC(=O)O)NC(=O)CN(C)C(=O)[C@@H]2CCCN2C(=O)c2cc3cc(c2)C(=O)NC[C@H](NC1=O)C(=O)N[C@@H](Cc1ccccc1)C(=O)N[C@@H](Cc1ccc2ccccc2c1)C(=O)N[C@@H](CCCNC(=N)N)C(=O)N[C@@H](CCCNC(=N)N)C(=O)N[C@@H](CCCNC(=N)N)C(=O)N[C@@H](CCCNC(=N)N)C(=O)N[C@H](C(=O)N[C@@H](CCCCN)C(N)=O)CNC3=O [Peptide 14, bicyclo[Tm-(Pro-Sar-D-Asp-Pip-Nal-Arg-β-Ala-D-Ala)-Dap-(Phe-Nal-Arg-Arg-Arg-Arg-Dap)]-Lys] (P[Sar][dD][Pip][2Nal]R[βAla][dA][Dap]F[2Nal]RRRR[Dap]K-NH2; linker N-9-16 via Trimesoyl; C-terminus assumed)"
5,0.46 ± 0.17 µM,bicyclo[Tm-(D-4-Phe-Fpa-D-Ile-Pip-Nal-Arg-Ala-D-Phe)-Dap-(Phe-Nal-Arg-Arg-Arg-Arg-Dap)]-Lys [Peptide 39]
6,1.38 ± 0.16 µM,"C[C@@H]1NC(=O)[C@H](CCCNC(=N)N)NC(=O)[C@H](Cc2ccc3ccccc3c2)NC(=O)[C@@H]2CCCCN2C(=O)[C@@H]([C@H](C)O)NC(=O)[C@H](Cc2ccc(F)cc2)NC(=O)[C@@H](Cc2ccccc2)NC(=O)c2cc3cc(c2)C(=O)NC[C@H](NC(=O)[C@@H](Cc2ccccc2)NC1=O)C(=O)N[C@@H](CCCNC(=N)N)C(=O)N[C@@H](CCCNC(=N)N)C(=O)N[C@@H](Cc1ccc2ccccc2c1)C(=O)N[C@@H](Cc1ccccc1)C(=O)N[C@@H](CCCNC(=N)N)C(=O)N[C@@H](CCCNC(=N)N)C(=O)N[C@H](C(=O)N[C@@H](CCCCN)C(N)=O)CNC3=O [Peptide 43, bicyclo[Tm-(D-Phe-Fpa-D-Thr-Pip-Nal-Arg-Ala-D-Phe)-Dap-(Arg-Arg-Nal-Phe-Arg-Arg-Dap)]-Lys] ([dF][Phe(4-F)][dT][Pip][2Nal]RA[dF][Dap]RR[2Nal]FRR[Dap]K-NH2; linker N-9-16 via Trimesoyl; C-terminus assumed)"
7,0.39 ± 0.05 µM,"C[C@@H]1NC(=O)[C@H](CCCNC(=N)N)NC(=O)[C@H](Cc2ccc3ccccc3c2)NC(=O)[C@@H]2CCCCN2C(=O)[C@@H]([C@H](C)O)NC(=O)[C@H](Cc2ccc(F)cc2)NC(=O)[C@@H](Cc2cccc(F)c2)NC(=O)c2cc3cc(c2)C(=O)NC[C@H](NC(=O)[C@@H](Cc2ccccc2)NC1=O)C(=O)N[C@@H](Cc1ccccc1)C(=O)N[C@@H](Cc1ccc2ccccc2c1)C(=O)N[C@@H](CCCNC(=N)N)C(=O)N[C@@H](CCCNC(=N)N)C(=O)N[C@@H](CCCNC(=N)N)C(=O)N[C@@H](CCCNC(=N)N)C(=O)N[C@H](C(=O)N[C@@H](CCCCN)C(N)=O)CNC3=O [Peptide 36, bicyclo[Tm-(D-3-Fpa-Fpa-D-Thr-Pip-Nal-Arg-Ala-D-Phe)-Dap-(Phe-Nal-Arg-Arg-Arg-Arg-Dap)]-Lys] ([dPhe(3-F)][Phe(4-F)][dT][Pip][2Nal]RA[dF][Dap]F[2Nal]RRRR[Dap]K-NH2; linker N-9-16 via Trimesoyl; C-terminus assumed)"
8,0.74 ± 0.11 µM,"C[C@H](O)[C@H]1NC(=O)[C@H](Cc2ccc(F)cc2)NC(=O)[C@@H](Cc2ccccc2)NC(=O)c2cc3cc(c2)C(=O)NC[C@H](NC(=O)[C@@H](C)NC(=O)CNC(=O)[C@H](CCCNC(=N)N)NC(=O)[C@H](Cc2ccc4ccccc4c2)NC(=O)[C@@H]2CCCCN2C1=O)C(=O)N[C@@H](Cc1ccccc1)C(=O)N[C@@H](Cc1ccc2ccccc2c1)C(=O)N[C@@H](CCCNC(=N)N)C(=O)N[C@@H](CCCNC(=N)N)C(=O)N[C@@H](CCCNC(=N)N)C(=O)N[C@@H](CCCNC(=N)N)C(=O)N[C@H](C(=O)N[C@@H](CCCCN)C(N)=O)CNC3=O [Peptide 26, bicyclo[Tm-(D-Phe-4-Fpa-D-Thr-Pip-Nal-Arg-Gly-D-Ala)-Dap-(Phe-Nal-Arg-Arg-Arg-Arg-Dap)]-Lys] ([dF][Phe(4-F)][dT][Pip][2Nal]RG[dA][Dap]F[2Nal]RRRR[Dap]K-NH2; linker N-9-16 via Trimesoyl; C-terminus assumed)"
9,2.08 ± 0.31 µM,"C[C@@H]1NC(=O)[C@H](CCCNC(=N)N)NC(=O)[C@H](Cc2ccc3ccccc3c2)NC(=O)[C@@H]2CCCCN2C(=O)[C@@H](CC(=O)O)NC(=O)CN(C)C(=O)[C@@H]2CCCN2C(=O)c2cc3cc(c2)C(=O)NC[C@@H](C(=O)N[C@@H](CCCCN)C(N)=O)NC(=O)[C@H](CCCNC(=N)N)NC(=O)[C@H](CCCNC(=N)N)NC(=O)[C@H](CCCNC(=N)N)NC(=O)[C@H](CCCNC(=N)N)NC(=O)[C@H](Cc2ccc4ccccc4c2)NC(=O)[C@H](Cc2ccccc2)NC(=O)[C@H](CNC3=O)NC(=O)CCNC1=O [Peptide 13, bicyclo[Tm-(Pro-Sar-D-Asp-Pip-Nal-Arg-Ala-β-Ala)-Dap-(Phe-Nal-Arg-Arg-Arg-Arg-Dap)]-Lys] (P[Sar][dD][Pip][2Nal]RA[βAla][Dap]F[2Nal]RRRR[Dap]K-NH2; linker N-9-16 via Trimesoyl; C-terminus assumed)"
10,0.78 ± 0.05 µM,"C[C@@H]1NC(=O)[C@H](CCCNC(=N)N)NC(=O)[C@H](Cc2ccc3ccccc3c2)NC(=O)[C@@H]2CCCCN2C(=O)[C@@H]([C@H](C)O)NC(=O)[C@H](Cc2ccc(Cl)cc2)NC(=O)[C@@H](Cc2ccccc2)NC(=O)c2cc3cc(c2)C(=O)NC[C@H](NC(=O)[C@@H](Cc2ccccc2)NC1=O)C(=O)N[C@@H](Cc1ccccc1)C(=O)N[C@@H](Cc1ccc2ccccc2c1)C(=O)N[C@@H](CCCNC(=N)N)C(=O)N[C@@H](CCCNC(=N)N)C(=O)N[C@@H](CCCNC(=N)N)C(=O)N[C@@H](CCCNC(=N)N)C(=O)N[C@H](C(=O)N[C@@H](CCCCN)C(N)=O)CNC3=O [Peptide 30, bicyclo[Tm-(D-Phe-4-ClPhe-D-Thr-Pip-Nal-Arg-Ala-D-Phe)-Dap-(Phe-Nal-Arg-Arg-Arg-Arg-Dap)]-Lys] ([dF][Phe(4-Cl)][dT][Pip][2Nal]RA[dF][Dap]F[2Nal]RRRR[Dap]K-NH2; linker N-9-16 via Trimesoyl; C-terminus assumed)"
11,2.36 ± 0.48 µM,"C[C@H](O)[C@H]1NC(=O)[C@H](Cc2ccc(F)cc2)NC(=O)[C@@H](Cc2ccccc2)NC(=O)c2cc3cc(c2)C(=O)NC[C@H](NC(=O)[C@H](CCCNC(=N)N)NC(=O)[C@H](Cc2ccc4ccccc4c2)NC(=O)[C@@H]2CCCCN2C1=O)C(=O)N[C@@H](Cc1ccccc1)C(=O)N[C@@H](Cc1ccc2ccccc2c1)C(=O)N[C@@H](CCCNC(=N)N)C(=O)N[C@@H](CCCNC(=N)N)C(=O)N[C@@H](CCCNC(=N)N)C(=O)N[C@@H](CCCNC(=N)N)C(=O)N[C@H](C(=O)N[C@@H](CCCCN)C(N)=O)CNC3=O [Peptide 12, bicyclo[Tm-(D-Phe-Fpa-D-Thr-Pip-Nal-Arg)-Dap-(Phe-Nal-Arg-Arg-Arg-Arg-Dap)]-Lys] ([dF][Phe(4-F)][dT][Pip][2Nal]R[Dap]F[2Nal]RRRR[Dap]K-NH2; linker N-7-14 via Trimesoyl; C-terminus assumed)"
